Legend:
H69AR = test: Cytotoxicity against human NCI-H69AR cells assessed as reduction in cell growth by MTT assay; assay type: functional, cell-based
MDA-MB-231 = test: Cytotoxicity against human MDA-MB-231 cells assessed as reduction in cell growth by MTT assay; assay type: functional, cell-based
K562 = test: Cytotoxicity against human K562 cells assessed as reduction in cell growth by MTT assay; assay type: functional, cell-based
[1] = Cytotoxicity against human L02 cells assessed as reduction in cell growth by MTT assay; assay type: toxicity, cell-based
ASPC1 = test: Cytotoxicity against human ASPC1 cells assessed as reduction in cell growth by MTT assay; assay type: functional, cell-based

For `CC(=O)O[C@@H]1OC(=O)C=C1/C=C/[C@]1(C)C2=CC[C@H]3C(C)(C)CCC[C@]3(C)[C@H]2CC[C@@H]1C`, the IC50 (H69AR) was 16.3 µM, the IC50 (MDA-MB-231) was 23.2 µM and the IC50 (K562) was 4.38 µM. For the same compound, the IC50 [1] was 7.21 µM.
Compound `CO[C@H](C[C@]1(C)C2=CC[C@H]3C(C)(C)CCC[C@]3(C)[C@H]2CC[C@@H]1C)C1=CC(=O)O[C@H]1O` has an IC50 (H69AR) of 5.67 µM, an IC50 (ASPC1) of 4.71 µM and an IC50 (MDA-MB-231) of 16 µM. It also gave an IC50 (K562) of 7.95 µM and an IC50 [1] of 4.62 µM.
`C[C@H]1CC[C@H]2C(=CC[C@H]3C(C)(C)CCC[C@]23C)[C@@]1(C)/C=C/C1=CC(=O)OC1O` (stereo partly drawn) showed an IC50 (H69AR) of 25.7 µM, an IC50 (ASPC1) of 22.4 µM and an IC50 (MDA-MB-231) of over 30 µM. It also gave an IC50 (K562) of 11.6 µM and an IC50 [1] of 13.5 µM.
`C[C@@H]1CC[C@@H]2C(=CC[C@@H]3C(C)(C)CCC[C@@]23C)[C@]1(C)C[C@H](O)C1=CC(=O)OC1` gave an IC50 (H69AR) of over 30 µM, an IC50 (ASPC1) of over 30 µM and an IC50 (MDA-MB-231) of over 30 µM. For the same compound, the IC50 (K562) was over 30 µM and the IC50 [1] was over 30 µM.
Work on `C=C(C)CCCC1=CCC[C@H](C)[C@]1(C)CCC1=CC(=O)OC1O` (stereo partly drawn) yielded an IC50 (H69AR) of 21.1 µM, an IC50 (ASPC1) of over 30 µM and an IC50 (MDA-MB-231) of over 30 µM. For the same compound, the IC50 (K562) was 15.1 µM and the IC50 [1] was 13.5 µM.
Work on `CC(=O)O[C@H]1OC(=O)C=C1/C=C/[C@]1(C)C2=CC[C@H]3C(C)(C)CCC[C@]3(C)[C@H]2CC[C@@H]1C` yielded an IC50 (H69AR) of 14.9 µM, an IC50 (MDA-MB-231) of 29 µM and an IC50 (K562) of 2.91 µM. The IC50 [1] was 6.8 µM.
Compound `CC(C)=CCC[C@@]1(C)CCC=C2[C@@H]1CC[C@H](C)[C@]2(C)CCC1=CC(=O)OC1` has an IC50 (H69AR) of over 30 µM, an IC50 (ASPC1) of over 30 µM and an IC50 (MDA-MB-231) of over 30 µM. For the same compound, the IC50 (K562) was over 30 µM and the IC50 [1] was over 30 µM.
`CC1=CCC[C@@H](C)[C@@]1(C)CC/C(C)=C/CCC1=CC(=O)OC1` gave an IC50 (H69AR) of over 30 µM, an IC50 (ASPC1) of over 30 µM and an IC50 (MDA-MB-231) of over 30 µM. The IC50 (K562) was over 30 µM and the IC50 [1] was over 30 µM.
For `CC(=O)O[C@@H]1C[C@@H]2[C@@]3(C)CCCC(C)(C)[C@@H]3CC[C@@]2(C)[C@@H]2C[C@@H](O)C3=C([C@H](O)OC3=O)[C@@]12C`, the IC50 (H69AR) was 27.5 µM, the IC50 (ASPC1) was 17.9 µM and the IC50 (MDA-MB-231) was over 30 µM. It also gave an IC50 (K562) of 7.19 µM and an IC50 [1] of 24.1 µM.
`C[C@@H]1CC[C@@H]2C(=CC[C@H]3C(C)(C)CCC[C@@]23C)[C@]1(C)C[C@@H](O)C1=CC(=O)OC1` gave an IC50 (H69AR) of over 30 µM, an IC50 (ASPC1) of over 30 µM and an IC50 (MDA-MB-231) of over 30 µM. The IC50 (K562) was 12.6 µM and the IC50 [1] was 11.6 µM.
`COc1cccc2c1C(=O)c1c(O)c3c(c(O)c1C2=O)C[C@@](O)(C(=O)CO)C[C@@H]3O[C@H]1C[C@H](N)[C@H](O)[C@H](C)O1` [DOXORUBICIN] showed an IC50 (H69AR) of under 1 µM, an IC50 (ASPC1) of under 1 µM and an IC50 (MDA-MB-231) of under 1 µM. For the same compound, the IC50 (K562) was under 1 µM and the IC50 [1] was under 1 µM.
